Data: US11406631B2, “Hydrazone derivatives for preventing or treating EBV-related cancers” (Universite de Bretagne Occidentale, priority 2018, dated 2022)

What was measured:
[1] = molecular target: G4-RNA EBNA1; test: HT-G4-FID assay: Thiazole Orange displacement from G4-RNA; assay type: binding, Epstein-Barr virus; conditions: for DC50: K+-100 buffer, pH 7.3, triplicate assays; for affinity for the G-quadruplex structure of EBNA1 (in words, FID data): conclusion from Table 1
Protocol: This assay is based on the displacement of a fluorescent indicator (Thiazole Orange, hereinafter TO) from a G4-RNA structure (RNA G-quadruplex of EBNA1) by a putative ligand such as the compounds of the invention (see FIG. 1). This displacement is quantified as % TO displacement. The percentage of TO displacement is calculated from the fluorescence intensity (F) in the presence of a putative ligand, using:
[formula] where F0 is fluorescence intensity of the probe (TO) bound to RNA without added ligand. The percentage of displacement is then plotted as a function of the concentration of added ligand. The RNA affinity of putative ligands is evaluated using the concentration of a ligand required to decrease the fluorescence of the probe by 50% (noted DC50), which is determined graphically from non-linear fitting of the displacement curve. […] 2. Materials and Reagents
Thiazole Orange (TO) and cacodylic acid were purchased from Aldrich and used without further purification. The oligoribonucleotide EBNA1 [5′-r(GGGGCAGGAGCAGGAGGA)-3′] (SEQ ID no 1) purified by reversed-phase HPLC was purchased from Eurogentec.
Stock solutions of the ligands (2 mM in DMSO (dimethylsulfoxyde)) were used for G4-FID assay, unless otherwise stated, and were stored at −20° C. Stock solutions of TO (2 mM in DMSO) were used for G4-FID assay. Fluorescent probe powders and solutions were stored and used, protected from light and used as aliquots to avoid freeze-thaw cycles. HT-G4-FID measurements were performed on a FLUOstar Omega microplate reader (BMG Labtech) with 96-well Non-Binding Surface black with black bottom polystyrene microplates (Corning ref 3650).
For HT-G4-FID assay, the oligonucleotide was dissolved in K^+−100-buffer (10 mM lithium cacodylate, pH 7.3, 100 mM KCl, 1 mM EDTA, 1% DMSO). Oligonucleotide concentrations were determined on the basis of their absorbance at 260 nm. Prior to use, the oligonucleotide was pre-treated by heating at 95° C. for 5 min followed by a slow cooling to 25° C.
Each G4-FID assay is performed in a 96-well microplates. […] The microplate is filled with (a) K^+−100 solution (qs for 200 μL) (b) 10 μL of a solution of pre-folded oligonucleotides (5 μM) and TO (10 μM-2 eq) and (c) an extemporaneously prepared 5 μM ligand solution in K^+−100 buffer (0 to 100 μL along the line of the microplate, i.e., from column […]: 0, 0.125, 0.25, 0.375, 0.5, 0.625, 0.75, 1.0, 1.25, 1.5, 2.0 and 2.5 μM) (see Largy et al., Anal Bioanal Chem 2011, 400, 34193427). After 5 min of orbital shaking at 500 rpm, fluorescence intensity is measured using the following experimental parameters: positioning delay: 0.5 s, 20 flashes per well, emission/excitation filters (nm): 485/520, gain adjusted at 80% of the fluorescence from the most fluorescent well (i.e., a well from column A).
Results are shown in Table 1 below (lower DC50 values indicate higher affinity of compounds to the G4-RNA structure of EBNA1).

[2] = tested on: GAr-based inhibition of translation; test: Yeast assay (assays described in Lista et al.); assay type: cell-based, Saccharomyces cerevisiae
Excerpt: A yeast-based (Saccharomyces cerevisiae) assay that recapitulates all the aspects of the GAr-based inhibition of translation, including the GAr-length dependency, has been developed, that allowed understanding the mechanisms of GAr-mediated mRNA translation—suppression in cis, as well as the cellular factors involved (Lista et al. Biotechnol J 2015, 10, 1670-1681). This assay was successfully used to identify small molecular weight compounds that can stimulate EBNA1 expression both in yeast and mammalian cells and that relieve GAr-based limitation of antigen presentation (Voisset et al. Dis Model Mech 2014, 7, 435-444).
Compounds 1a, 2a, 4a, 5a, 7a, 10a and 11a were also tested in the various assay described in Lista et al. (Nat Commun 2017, 8, 16043).

[3] = tested on: EBNA1 expression in EBV-infected cells; test: Western blot of endogenous EBNA1 in EBV-infected cell lines (B95.8, Mutu-1, Raji); assay type: cell-based; conditions: GAr-dependent; 2a in B95.8, Mutu-1 and Raji, 11a in Raji
Protocol: Therefore, compound 2a interferes with the GAr-based inhibition of protein expression. Interference with EBNA1 expression in EBV-infected cells was assessed in different cell lines. The principle of these experiments is the same than the one described in the paragraph just above except that the steady state level of endogenous EBNA1 is determined in these EBV-infected cell lines.
B95.8 cells are derived from cotton-top Tamarin Monkey peripheral blood lymphocyte EBV-positif. Mutu-1 cells are derived from an EBV-positive Burkitt's lymphoma biopsy specimen from a patient. Raji cells are EBV-positive type III latency Burkitt's lymphoma.
Compounds 2a and 11a increase in a GAr-dependent manner EBNA1 expression in EBV-infected cells.

[4] = tested on: GAr-limited antigen presentation; test: Antigen presentation assay (IL-2 ELISA); assay type: cell-based; conditions: 5 μM and 10 μM, compared to DMSO-treated cells
Protocol: Stars indicate significant results (the higher the number of stars, the more significant). […]ns[…] stands for not significant.
The aim of this assay was to determine if compounds 2a and 11a were able to interfere (suppress) with the GAr-dependent limitation of EBNA1-derived antigenic peptid presentation. H1299 cells were transfected with 235GAr-OVA or OVA plasmids and murine MHC class I Kb plasmids. T-cell proliferation is determined using ELISA assay for Mouse IL-2 (IL-2 is a potent lymphoid cell growth factor which exerts its biological activity primarily in T cell). There is therefore a correlation between the quantity of IL2 released and the T-cell proliferation.
Quantifications of IL2 release following treatment with compounds 2a or 11a, as compared to DMSO-treated cells are shown in the FIG. 7. […] These compounds thus increase T-cell proliferation.

[5] = tested on: Mutu-1 cells; test: Cell viability (MTT assay); assay type: cell-based; design: dose or concentration left out as unconfirmed; conditions: concentration range where they increase EBNA1 expression; preliminary results
Protocol: (§1) Stars indicate significant results (the higher the number of stars, the more significant).
Toxicity of various concentration of G4 ligands on Mutu-1 cells was assessed using the classical MTT assay. The results obtained with various concentrations of compounds 2a and 11a were compared to the result obtained with cells treated by DMSO (compound vehicle).

[6] = tested on: interaction between NCL and the G4s of EBNA1 mRNA; test: Proximity ligation assay (PLA) in H1299 cells transfected with EBNA1 plasmids; assay type: cell-based; conditions: 5 μM
Excerpt: as §1

Row | Compound | DC50 [1] | affinity for the G-quadruplex structure of EBNA1 (in words, FID data) [1] | result in the yeast assay [2] | EBNA1 expression in EBV-infected cells [3] | release of IL-2, H1299 cells expressing 235GAr-OVA [4] | release of IL-2, OVA-expressing cells [4] | toxicity on Mutu-1 cells [5] | number of PLA dots and their intensity [6] | number of nuclear PLA dots per cell [6]
1 | C[n+]1ccc(C=NNC(=O)c2cccc(C(=O)NN=Cc3cc[n+](C)c4ccccc34)n2)c2ccccc21.[I-].[I-] [Compound 2a, N′^2, N′^6-Bis[(1-methylquinolinium-4-yl)methylene]pyridine-2,6-dicarbohydrazide iodide] | 260 ± 50 nM | particularly high affinity | positive results | increase | significantly increased (two-fold change) | no effect | not significantly toxic | significantly reduce | significantly reduced
2 | C[n+]1ccc(C=NNC(=O)c2ccc3ccc4ccc(C(=O)NN=Cc5cc[n+](C)c6ccccc56)nc4c3n2)c2ccccc21.[I-].[I-] [Compound 11a, N′^2,N′^9-Bis[(1-methylquinolinium-4-yl)methylene]-1,10-phenanthroline-2,9-dicarbohydrazide iodide] | 300 ± 30 nM | particularly high affinity | positive results | increase | significantly increased (two-fold change) | no effect | not significantly toxic | significantly reduce | significantly reduced
